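The compound was tested at five concentrations on cells cultured in 96-well plates, with a 48-hour exposure period. Here, GI50 denotes the concentration required for 50% inhibition of growth.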 Active and inactive are the calls of the source. Cut-off read from the data, not from the text of the source: active = GI50 up to about 1.1 µM and inactive = higher.
Key:
Test in all cases: NCI tumour cell line growth inhibition, 48 h
NCI-H23 = test system: NCI-H23
MDA-MB-435 = test system: MDA-MB-435
T47D = test system: T47D
HT-29 = test system: HT-29
OVCAR-4 = test system: OVCAR-4
MDA-MB-231 = test system: MDA-MB-231
M14 = test system: M14
NCI/ADR-RES = test system: NCI/ADR-RES
IGROV-1 = test system: IGROV-1
NCI-H522 = test system: NCI-H522
CCRF-CEM = test system: CCRF-CEM
MOLT-4 = test system: MOLT-4
OVCAR-5 = test system: OVCAR-5
TK-10 = test system: TK-10
Hs-578T = test system: Hs-578T
SR = test system: SR
HOP-92 = test system: HOP-92
UO-31 = test system: UO-31
BT-549 = test system: BT-549
COLO 205 = test system: COLO 205

Measured: GI50

CC1=NN(c2cccc(Cl)c2)C(=N/c2nc3ccccc3s2)/C1=C\c1ccccc1O
inactive: NCI-H23 27.5 µM | MDA-MB-435 33.6 µM | T47D 36.4 µM | HT-29 39.7 µM | OVCAR-4 47.5 µM | MDA-MB-231 21 µM | M14 38 µM | NCI/ADR-RES 24 µM | IGROV-1 19.7 µM | NCI-H522 20 µM | CCRF-CEM 35.9 µM | MOLT-4 34.2 µM | OVCAR-5 61.7 µM | TK-10 37.7 µM | Hs-578T 22 µM | SR 40.6 µM | HOP-92 24.4 µM | UO-31 34 µM

COc1cc2c(c(OC)c1OC)C(=O)CC2N (centres undefined)
inactive: NCI-H23 > 100 µM | MDA-MB-435 > 100 µM | HT-29 > 100 µM | OVCAR-4 > 100 µM | MDA-MB-231 > 100 µM | M14 > 100 µM | NCI/ADR-RES > 100 µM | IGROV-1 > 100 µM | NCI-H522 > 100 µM | CCRF-CEM > 100 µM | MOLT-4 > 100 µM | OVCAR-5 > 100 µM | TK-10 > 100 µM | Hs-578T > 100 µM | BT-549 > 100 µM | COLO 205 > 100 µM | HOP-92 > 100 µM | UO-31 > 100 µM

CC(=O)CC1(C)OC(N)=C(C#N)C1(C#N)C#N (centres undefined)
inactive: NCI-H23 > 100 µM | MDA-MB-435 > 100 µM | T47D > 100 µM | HT-29 88.9 µM | MDA-MB-231 > 100 µM | M14 > 100 µM | NCI/ADR-RES > 100 µM | IGROV-1 > 100 µM | NCI-H522 48.9 µM | CCRF-CEM 44.7 µM | OVCAR-5 > 100 µM | TK-10 > 100 µM | Hs-578T > 100 µM | COLO 205 45.9 µM | HOP-92 74.6 µM | UO-31 > 100 µM

COC1=CC2C(c3cc4ccccc4n3S(=O)(=O)c3ccccc3)CC1CN2C(=O)OCc1ccccc1 (centres undefined)
inactive: NCI-H23 29.7 µM | MDA-MB-435 24.2 µM | HT-29 23.6 µM | OVCAR-4 26.1 µM | MDA-MB-231 20 µM | M14 19.6 µM | NCI/ADR-RES 35.7 µM | IGROV-1 33.7 µM | NCI-H522 18 µM | CCRF-CEM 29.4 µM | OVCAR-5 18.2 µM | TK-10 67.1 µM | Hs-578T 23.8 µM | BT-549 25 µM | COLO 205 16.4 µM | UO-31 27.2 µM

O=C(Nc1nc2ccc([N+](=O)[O-])cc2[n+]([O-])n1)C(F)(F)F
inactive: NCI-H23 26.2 µM | MDA-MB-435 17.6 µM | T47D 35.2 µM | HT-29 23.3 µM | OVCAR-4 26.3 µM | MDA-MB-231 26.9 µM | M14 37.3 µM | NCI/ADR-RES 32.4 µM | IGROV-1 18 µM | NCI-H522 21 µM | CCRF-CEM 26.5 µM | MOLT-4 24.4 µM | OVCAR-5 41.8 µM | TK-10 44.2 µM | SR 29.5 µM | BT-549 94.2 µM | COLO 205 4.65 µM | HOP-92 56.1 µM | UO-31 40.8 µM

CC(=O)Oc1cc(C(F)(F)F)ccc1C(=O)OC1(C)OC(=O)c2ccc(C(F)(F)F)cc2O1 (centres undefined)
inactive: NCI-H23 > 100 µM | MDA-MB-435 > 100 µM | T47D > 100 µM | HT-29 > 100 µM | OVCAR-4 > 100 µM | MDA-MB-231 > 100 µM | M14 > 100 µM | NCI/ADR-RES > 100 µM | IGROV-1 > 100 µM | NCI-H522 > 100 µM | CCRF-CEM > 100 µM | MOLT-4 > 100 µM | OVCAR-5 > 100 µM | TK-10 > 100 µM | BT-549 > 100 µM | COLO 205 > 100 µM | HOP-92 > 100 µM | UO-31 > 100 µM

Cc1nc(C(N)=S)sc1C(/C=C/c1ccc(Cl)c(Cl)c1)=N/NC(C)(C)C
inactive: NCI-H23 > 100 µM | MDA-MB-435 > 100 µM | HT-29 > 100 µM | OVCAR-4 88.5 µM | MDA-MB-231 > 100 µM | NCI/ADR-RES > 100 µM | IGROV-1 > 100 µM | NCI-H522 75.3 µM | CCRF-CEM 32.8 µM | MOLT-4 22.3 µM | TK-10 > 100 µM | Hs-578T > 100 µM | BT-549 > 100 µM | COLO 205 > 100 µM | HOP-92 > 100 µM | UO-31 33.2 µM

Cc1cn(C2CC(SCCO)C(CO)O2)c(=O)[nH]c1=O (centres undefined)
inactive: NCI-H23 > 100 µM | MDA-MB-435 > 100 µM | T47D > 100 µM | HT-29 > 100 µM | OVCAR-4 > 100 µM | MDA-MB-231 > 100 µM | M14 > 100 µM | NCI/ADR-RES > 100 µM | IGROV-1 > 100 µM | NCI-H522 > 100 µM | CCRF-CEM > 100 µM | MOLT-4 > 100 µM | OVCAR-5 > 100 µM | SR > 100 µM | BT-549 > 100 µM | COLO 205 > 100 µM | HOP-92 > 100 µM | UO-31 > 100 µM

Cc1ccc2ccccc2c1NC1=NCCO1
inactive: NCI-H23 90.4 µM | MDA-MB-435 > 100 µM | T47D 41.7 µM | HT-29 83 µM | OVCAR-4 94.6 µM | MDA-MB-231 > 100 µM | M14 > 100 µM | NCI/ADR-RES > 100 µM | IGROV-1 > 100 µM | CCRF-CEM 70.3 µM | MOLT-4 34 µM | OVCAR-5 > 100 µM | TK-10 > 100 µM | Hs-578T 24.9 µM | SR 34.2 µM | COLO 205 > 100 µM | HOP-92 11.8 µM | UO-31 27.7 µM

C=C(C)/C=C/C(O)[C@](C)(O)[C@H]1[C@H](O)C[C@@]2(C)[C@@H]3CCc4c(cc(OC5OC(CO)C(O)C(O)C5O)c(O)c4C)C3(C)C(=O)C[C@]12C (some centres undefined)
inactive: NCI-H23 64.4 µM | MDA-MB-435 > 100 µM | T47D > 100 µM | HT-29 > 100 µM | OVCAR-4 > 100 µM | MDA-MB-231 > 100 µM | M14 > 100 µM | NCI/ADR-RES > 100 µM | IGROV-1 > 100 µM | NCI-H522 > 100 µM | CCRF-CEM > 100 µM | MOLT-4 > 100 µM | OVCAR-5 > 100 µM | TK-10 > 100 µM | SR > 100 µM | BT-549 > 10 µM | COLO 205 > 100 µM | HOP-92 > 100 µM | UO-31 > 100 µM

CC1(C)Cc2c(cnn2-c2ccc(C(F)(F)F)cc2)-c2[nH]c(-c3ccc(O)cc3)nc21
inactive: NCI-H23 18.2 µM | MDA-MB-435 17.2 µM | T47D 16.7 µM | HT-29 3.99 µM | OVCAR-4 12.2 µM | MDA-MB-231 22.3 µM | M14 14.9 µM | NCI/ADR-RES 19.5 µM | IGROV-1 19.4 µM | NCI-H522 8.99 µM | CCRF-CEM 2.18 µM | MOLT-4 2.05 µM | OVCAR-5 17.8 µM | TK-10 16.5 µM | SR 4.71 µM | BT-549 12.8 µM | COLO 205 13.7 µM | HOP-92 17.9 µM | UO-31 15.3 µM

O=[N+]([O-])/C(C(Cl)=C(Cl)Cl)=C(\N1CCOCC1)n1nnc2ccccc21
inactive: NCI-H23 16.7 µM | MDA-MB-435 17 µM | T47D 16.9 µM | OVCAR-4 27.2 µM | MDA-MB-231 17.5 µM | M14 17.2 µM | NCI/ADR-RES 25.9 µM | NCI-H522 16 µM | MOLT-4 33.5 µM | OVCAR-5 21.1 µM | TK-10 29.3 µM | BT-549 19 µM | COLO 205 18.8 µM | HOP-92 18.3 µM | UO-31 17.8 µM

Fc1ccc2c3c([nH]c2c1)CCN(Cc1ccccc1)C3
inactive: NCI-H23 20.9 µM | MDA-MB-435 17.5 µM | T47D 14.7 µM | HT-29 20.4 µM | OVCAR-4 24.6 µM | MDA-MB-231 24.3 µM | M14 17.3 µM | NCI/ADR-RES 28.1 µM | IGROV-1 20.7 µM | CCRF-CEM 30.4 µM | MOLT-4 17.3 µM | OVCAR-5 19.9 µM | TK-10 > 10 µM | Hs-578T 12 µM | SR 18.3 µM | COLO 205 20.5 µM | HOP-92 5.33 µM | UO-31 12.2 µM

COc1ccc(S(=O)(=O)Nc2ccc(-c3csc(N4C(=O)/C(=C/c5ccccc5[N+](=O)[O-])N=C4c4ccccc4)n3)cc2)cc1Cl
inactive: NCI-H23 20.8 µM | MDA-MB-435 > 100 µM | T47D 24.5 µM | HT-29 > 100 µM | OVCAR-4 19.7 µM | MDA-MB-231 20.3 µM | M14 24.4 µM | NCI/ADR-RES 86.1 µM | IGROV-1 16.1 µM | NCI-H522 35.9 µM | MOLT-4 29.9 µM | OVCAR-5 73.6 µM | TK-10 53.3 µM | Hs-578T 40.4 µM | SR 30.8 µM | COLO 205 65.8 µM | HOP-92 23.3 µM | UO-31 32.3 µM

COC1O[C@@H]2CCN3C(=O)[C@@H](OC(=O)c4ccc([N+](=O)[O-])cc4)[C@H]1C23 (some centres undefined)
inactive: NCI-H23 > 100 µM | MDA-MB-435 > 100 µM | T47D > 100 µM | HT-29 > 100 µM | MDA-MB-231 > 100 µM | M14 > 100 µM | NCI/ADR-RES > 100 µM | IGROV-1 > 100 µM | NCI-H522 > 100 µM | CCRF-CEM > 100 µM | MOLT-4 > 100 µM | OVCAR-5 > 100 µM | TK-10 > 100 µM | Hs-578T > 100 µM | SR > 100 µM | COLO 205 > 100 µM | HOP-92 > 100 µM | UO-31 > 100 µM
